PubChem BioAssay (NCI)
Several values for one entry are separate records, joined by “and”; a condition that tells them apart may be missing. Equal entries are not always repeated.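 Where inhibition never reached the appropriate level, the endpoint shown equals the highest concentration tested. Otherwise, values were interpolated linearly from a five-concentration, 48-hour dose response in 96-well plates. Here, GI50 denotes the concentration required for 50% inhibition of growth. Definition used: TGI = concentration required for complete inhibition of growth.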

Legend:
Test in all cases: NCI tumour cell line growth inhibition, 48 h
COLO 205 colon = tested on: COLO 205 colon
HCC-2998 colon = tested on: HCC-2998 colon
HCT-116 colon = tested on: HCT-116 colon
HOP-92 NSCLC = tested on: HOP-92 NSCLC
MALME-3M melanoma = tested on: MALME-3M melanoma
RXF 393 renal = tested on: RXF 393 renal
SK-MEL-2 melanoma = tested on: SK-MEL-2 melanoma
T-47D breast = tested on: T-47D breast
TK-10 renal = tested on: TK-10 renal
UO-31 renal = tested on: UO-31 renal

| SMILES | GI50 (COLO 205 colon) | TGI (COLO 205 colon) | GI50 (HCC-2998 colon) | TGI (HCC-2998 colon) | GI50 (HCT-116 colon) | TGI (HCT-116 colon) | GI50 (HOP-92 NSCLC) | TGI (HOP-92 NSCLC) | GI50 (MALME-3M melanoma) | TGI (MALME-3M melanoma) | GI50 (RXF 393 renal) | TGI (RXF 393 renal) | GI50 (SK-MEL-2 melanoma) | TGI (SK-MEL-2 melanoma) | GI50 (T-47D breast) | TGI (T-47D breast) | GI50 (TK-10 renal) | TGI (TK-10 renal) | GI50 (UO-31 renal) | TGI (UO-31 renal) |
| --- | --- | --- | --- | --- | --- | --- | --- | --- | --- | --- | --- | --- | --- | --- | --- | --- | --- | --- | --- | --- |
| Nc1ncc(-c2ccc3ncnc(N4CCc5cc(F)c(Cl)cc54)c3c2)cc1C=O | 1.9 µM | > 100 µM | 2.29 µM | > 100 µM | 2.29 µM | > 100 µM | 0.149 µM | 1.46 µM | 1.13 µM | > 100 µM | 0.471 µM | 2.14 µM | 1.59 µM | 6.05 µM | 0.587 µM | > 100 µM | 0.248 µM | 3.65 µM | 0.277 µM | > 100 µM |
| O=C(CCl)N1CCN(c2ccccn2)CC1 |  | 47.4 µM |  | 35.8 µM |  | > 100 µM |  | 36.3 µM |  | 31.8 µM |  | 41.6 µM |  |  |  | 31.7 µM |  | 35.8 µM |  | 36.3 µM |
| CCN1C[C@@H](C)n2c(c(O)c3c(=O)n(Cc4ccc(F)c(Cl)c4)nc(C(=O)NC)c32)C1=O | 18.3 µM | 40.3 µM | 2.54 µM | 6.08 µM | 3.21 µM | > 100 µM | 1.7 µM | 4.91 µM | 2.75 µM | 8.07 µM |  |  | 2.11 µM | 4.53 µM | 3.57 µM | > 100 µM | 2.95 µM | 12.6 µM | 2.43 µM | > 100 µM |
| Cn1ccc(S(=O)(=O)N2CCC[C@H](Nc3nccc(-c4c(-c5cccc(O)c5)nc5occn45)n3)C2)n1 | 0.0913 µM | 28.6 µM | 15 µM | 34.3 µM | 3.93 µM | 32.4 µM | 7.64 µM | 52.9 µM |  |  | 4.47 µM | 18.4 µM | 0.444 µM | 10.7 µM | 18.5 µM | 70.5 µM | 14.3 µM | 60.2 µM | 12.9 µM | 57.1 µM |
| CC[C@@]1(O)C(=O)OCc2c1cc1n(c2=O)Cc2cc3cc(O)ccc3nc2-1 | 0.573 µM | 2.36 µM and 2.56 µM | 0.0589 µM and 0.0721 µM | 0.912 µM and 0.847 µM | 0.0228 µM and 0.0176 µM | 13.7 µM | 0.0239 µM | 0.107 µM and 0.513 µM | 0.0567 µM | 1.45 µM and 0.877 µM | 0.0311 µM | 0.165 µM and 0.222 µM | 0.174 µM | 2.15 µM and 1.2 µM |  | > 100 µM |  | 44.9 µM | 0.0311 µM and 0.0195 µM | 0.204 µM and 0.135 µM |
| O=C(CC(O)(C(F)(F)F)C(F)(F)F)c1cccs1 |  | > 10 µM |  | > 10 µM |  | > 10 µM |  | > 10 µM |  | > 10 µM |  |  |  |  |  | > 10 µM |  | > 10 µM |  |  |
| C/C(=N\O)C1CC(CC(=O)O)C1(C)C (stereo not given) |  | > 100 µM |  | > 100 µM |  | > 100 µM |  | > 100 µM |  | > 100 µM |  | > 100 µM |  | > 100 µM |  | > 100 µM |  | > 100 µM |  | > 100 µM |
| Nc1nc(N)c2c(Cl)c(CNc3ccc(Cl)c(Cl)c3)ccc2n1 |  | 13 µM |  | 2.05 µM |  | 12.4 µM |  | 9.36 µM |  | 12.8 µM |  | 7.26 µM |  | 16.7 µM |  | 23.3 µM |  | 12.4 µM |  | 10.3 µM |
| CC1(C)CCC2(C(=O)O)C(O)CC3(C)C(=CCC4C5(C)CCC(OC6OCC(O)C(O)C6OC6OCC(O)C(O)C6OC6OCC(O)C(OC7OC(CO)C(O)C(O)C7O)C6O)C(C)(C)C5CCC43C)C2C1 (stereo not given) |  | > 100 µM |  | > 100 µM |  | > 100 µM |  | 82.7 µM |  | 78.4 µM |  | 59.1 µM |  | 76.3 µM |  | > 100 µM |  | > 100 µM |  | 35.3 µM |
| O=C1NC(=NCCc2ccccc2F)S/C1=C\c1ccc2ncccc2c1 | 6.54 µM | > 25 µM | 8.55 µM | > 25 µM | 1.27 µM | > 25 µM | 7.84 µM | > 25 µM | 11.4 µM | > 25 µM | 7.18 µM | > 25 µM | 6.16 µM | 14.5 µM | 9.55 µM | > 25 µM | 5.13 µM | > 25 µM | 6.91 µM | > 25 µM |
| Cc1ncnc2c1ccn2[C@@H]1C[C@H](Oc2cc(C(F)F)c(F)c3c2CNCC3)[C@@H](O)[C@H]1O | > 100 µM | > 100 µM | > 100 µM | > 100 µM | > 100 µM | > 100 µM | 4.68 µM | > 100 µM | > 100 µM | > 100 µM | > 100 µM | > 100 µM | > 100 µM | > 100 µM | > 100 µM | > 100 µM | > 100 µM | > 100 µM | > 100 µM | > 100 µM |
| CCN(CC)CCOc1ccc2c(-c3ccccc3)c(-c3ccc(OC)cc3)c(=O)oc2c1 | 1.85 µM | 3.72 µM | 4.22 µM | 15 µM | 2.78 µM | 10.5 µM | 2.47 µM | 10.7 µM | 1.28 µM | 3.08 µM | 3.23 µM | 13.7 µM |  |  | 3.57 µM | 15.9 µM | 11.6 µM | 25.2 µM | 1.65 µM | 5.55 µM |
| CC(=O)CCC[C@@H](C)[C@@H]1O[C@H]([C@@]2(C)CCC(=O)O2)CC2[C@H]1OC(=O)C21CC1 (stereo not given in full) | > 100 µM | > 100 µM | 77.2 µM | > 100 µM | > 100 µM | > 100 µM | > 100 µM | > 100 µM |  |  | > 100 µM | > 100 µM | > 100 µM | > 100 µM | > 100 µM | > 100 µM |  |  | > 100 µM | > 100 µM |
| Cn1cc(Nc2nccc(-c3ccc4c(c3)CN(C3COC3)CC[C@H]4NC(=O)c3cn(C(C)(C)C)nn3)n2)cn1 | 30.6 µM | > 100 µM | > 100 µM | > 100 µM | 73.6 µM | > 100 µM | 16 µM | 89.7 µM | 38 µM | > 100 µM | 26.6 µM | > 100 µM | > 100 µM | > 100 µM | 47.9 µM | > 100 µM | 59.5 µM | > 100 µM | 53.1 µM | > 100 µM |
| COc1cc(C(=O)/C=C/c2cccnc2Nc2ccc(Cl)cc2)cc(OC)c1OC | 1.83 µM | 3.47 µM | 1.52 µM | 2.89 µM | 0.568 µM | 1.84 µM | 0.519 µM | 2.14 µM | 1.91 µM | 3.65 µM | 1.26 µM | 2.61 µM | 2.01 µM | 4.11 µM | 1.42 µM | 3.24 µM | 1.87 µM | 3.35 µM | 1.32 µM | 2.7 µM |
| COC(=O)COc1ccccc1/C=C1/N=C(c2ccccc2)N(c2c(C)n(C)n(-c3ccccc3)c2=O)C1=O | > 100 µM | > 100 µM | 47.3 µM | > 100 µM | > 100 µM | > 100 µM | > 100 µM | > 100 µM | > 100 µM | > 100 µM | > 100 µM | > 100 µM | 25 µM | 56.4 µM | 30.5 µM | > 100 µM | > 100 µM | > 100 µM | > 100 µM | > 100 µM |
| COC(=O)C1C(=O)C(C(=O)OC)C2CCC1N2C (stereo not given) |  | > 100 µM |  | > 100 µM |  | > 83.2 µM |  | > 77.3 µM |  | 51.9 µM |  | > 100 µM |  | 63.5 µM |  | > 100 µM |  | > 100 µM |  | > 100 µM |
| O=C(CCl)N1CCN(c2ccccc2)CC1 |  | 40 µM |  | 32.2 µM |  | 35.5 µM |  | 36.2 µM |  | 42.8 µM |  | 35.2 µM |  |  |  | 45.8 µM |  | 34.8 µM |  | 32 µM |
| CCN(CC)CCOc1ccc(/C(=C(\C)Cc2ccc(OC)cc2)c2ccc(O)cc2)cc1 | 1.71 µM | 3.42 µM | 1.91 µM | 3.46 µM |  |  | 0.588 µM | 2.61 µM | 1.73 µM | 3.28 µM | 1.51 µM | 2.91 µM | 1.94 µM | 3.71 µM | 1.14 µM | 3.52 µM | 1.82 µM | 3.68 µM | 1.45 µM | 2.8 µM |
| C=C1CC[C@@](C)(c2cc(Br)c(C)cc2OC(C)=O)[C@H]1C | 17.6 µM | 31.3 µM |  |  | 8.81 µM | 20.8 µM | 3.49 µM | 16.2 µM | 15.2 µM | 30.5 µM | 14.8 µM | 32.5 µM | 13.8 µM | 32.4 µM | 10.7 µM | 27.8 µM | 12 µM | 25 µM | 13.1 µM | 30.5 µM |
| CCOC(=O)C(Cc1ccccc1)n1c(O)c(/C=N/c2ncc(Cc3ccc(Cl)cc3Cl)s2)sc1=S (stereo not given) | 1.66 µM | 3.34 µM | 2.54 µM | 42.3 µM | 2.03 µM | 11.5 µM | 1.65 µM | 6.22 µM | 2.77 µM | 9.25 µM | 2.56 µM | 6.7 µM | 1.31 µM | 5.68 µM | 2.16 µM | 8.73 µM |  |  | 1.97 µM | 5.31 µM |
| COc1cc2c3c(n(CCCNCCCCN)c(=O)c2cc1OC)-c1cc2c(cc1C3=O)OCO2 | 6.02 µM | > 46 µM |  |  | 1.85 µM | 15.2 µM | 0.738 µM | 3.8 µM | 1.66 µM | 7.32 µM | 0.301 µM | 11.4 µM | 4.86 µM | 16.4 µM | 3.11 µM | 27.1 µM | 0.773 µM | 10.1 µM | 7.39 µM | > 58.5 µM |
